Reference: US7407775B2, “Method for identifying Listeria monocytogenes and culture medium” (Biomerieux S.A., priority 2000, dated 2008)

Assays:
Assay type in all cases: cell-based
[1] = tested on: Listeria innocua ATCC 33090; experiment: Experiment 2: octanoate esterase substrates with different Indoxyl-based chromogenic markers; design: key: —: the symbol “-” corresponds to the absence of color or intensity; 0 corresponds to no activity; 0.1 corresponds to a trace of color; 0.5 corresponds to very pale coloration; 1 corresponds to clear but low-intensity coloration; 1.5 corresponds to a degree of coloration intermediate between scores 1 and 2; 2 corresponds to clear coloration of moderate intensity; 2.5 corresponds to a degree of coloration intermediate between scores 2 and 3; 3 corresponds to intense coloration; 3.5 corresponds to a degree of coloration intermediate between scores 3 and 4; 4 corresponds to very intense coloration; settings: 37° C., substrate 250 mg/l
Protocol: (§1) In Table 1 above, as in the following Tables, C represents the color of the colonies after incubation, I represents the intensity of the color, and the symbol “-” corresponds to the absence of color or intensity; finally, IT defines the incubation time. It should be noted that the intensity of the color is scored on an arbitrary scale but one which is consistent for all the biological specimens and media tested. This scale is valid for this experiment as well as all those that follow. It can be defined in the following way: • 0 corresponds to no activity, • 0.1 corresponds to a trace of color, • 0.5 corresponds to very pale coloration, • 1 corresponds to clear but low-intensity coloration, • 1.5 corresponds to a degree of coloration intermediate between scores 1 and 2, • 2 corresponds to clear coloration of moderate intensity, • 2.5 corresponds to a degree of coloration intermediate between scores 2 and 3, • 3 corresponds to intense coloration, • 3.5 corresponds to a degree of coloration intermediate between scores 3 and 4, • 4 corresponds to very intense coloration.
(§2) A stock solution of each substrate at a concentration of 40 g/l was made up in a mixture of 40% Dimethylsulfoxide and 60% Tween 20. An appropriate volume was added to four Columbia-type media while cooling to give a final substrate concentration of 250 mg/l. These dishes were divided into three areas and then each area was inoculated with a suspension (density=0.5 McFarland) of microorganisms taken from either the Applicant's own collection or the ATCC. The dishes were incubated for 48 hours at 37° C. The colonies which grew were examined by eye after 24 and 48 hours of incubation. Both the color and the intensity of the color of the colonies were recorded.

[2] = tested on: Listeria innocua 171; experiment: as above; design: key: —: the symbol “-” corresponds to the absence of color or intensity; 0 corresponds to no activity; 0.1 corresponds to a trace of color; 0.5 corresponds to very pale coloration; 1 corresponds to clear but low-intensity coloration; 1.5 corresponds to a degree of coloration intermediate between scores 1 and 2; 2 corresponds to clear coloration of moderate intensity; 2.5 corresponds to a degree of coloration intermediate between scores 2 and 3; 3 corresponds to intense coloration; 3.5 corresponds to a degree of coloration intermediate between scores 3 and 4; 4 corresponds to very intense coloration; settings: 37° C., substrate 250 mg/l
Protocol: as §1, §2

[3] = tested on: Listeria species; experiment: Experiment 3: differentiation of Listeria species in liquid medium
Protocol: as §1
These substrates were lyophilized in the wells of API-type strips (Registered Trademark). Before use, the substrates contained in the wells were resuspended in an agar-free Columbia-type inoculation medium. […]
The intensity of the color of the colonies was recorded.

C (color of the colonies) ([1]; IT 24 h) | C (color of the colonies) ([1]; IT 48 h) | C (color of the colonies) ([2]; IT 48 h) | Compound | I (intensity of the color) ([1]; IT 24 h) | I (intensity of the color) ([1]; IT 48 h) | C (color of the colonies) ([2]; IT 24 h) | I (intensity of the color) ([2]; IT 24 h) | I (intensity of the color) ([2]; IT 48 h) | differentiation between L. monocytogenes and other species belonging to the same genus [3]
purple | purple | purple | CCCCCCCC(=O)Oc1c[nH]c2cc(Cl)c(Br)cc12 [Magenta-C8, 5-Bromo-6-chloro-3-indolyl octanoate] | 1 | 2 | purple | 0.5 | 3 | 
gray | gray | gray | CCCCCCCC(=O)Oc1c[nH]c2ccc(Br)cc12 [Blue-C8, 5-Bromo-3-indolyl octanoate] | 0.3 | 0.5 | — | — | 0.3 | 
turquoise | turquoise | turquoise | CCCCCCCC(=O)Oc1c[nH]c2ccc(Br)c(Cl)c12 [X-C8, 5-Bromo-4-chloro-3-indolyl octanoate] | 0.3 | 0.5 |  | — | 0.3 | gave a contrast in color

Compound | C (color of the colonies) ([1]; IT 24 h) | C (color of the colonies) ([1]; IT 48 h) | C (color of the colonies) ([2]; IT 48 h) | I (intensity of the color) ([1]; IT 24 h) | I (intensity of the color) ([1]; IT 48 h) | C (color of the colonies) ([2]; IT 24 h) | I (intensity of the color) ([2]; IT 24 h) | I (intensity of the color) ([2]; IT 48 h) | differentiation between L. monocytogenes and other species belonging to the same genus [3]
CCCCCCCC(=O)Oc1c[nH]c2cc(Cl)ccc12 [Pink-C8, 6-Chloro-3-indolyl octanoate] | — | pink | pink | — | 0.5 | — | — | 0.3 | 
